Measurements from patent publication US20220135968A1, “TREATMENT OF SYNUCLEINOPATHY AND ANIMAL MODELS OF SYNUCLEINOPATHY” (TORREY PINES LAW GROUP, PC, priority 2018, published 2022).
“Also recorded” adds a separate entry of the source.

Legend:
patients = conditions: cited from earlier work; for disease symptoms in patients: treatment reported in literature
Parkinson's mouse models = Parkinson's mouse models (Patki, 2011); cited from earlier work
MNT-1 cells [1] = assay: Rapamycin-induced autophagy in MNT-1 cells, melanin content as readout; assay type: cell-based, human; conditions: autophagy induced by rapamycin, exposure to α-MSH, FIG. 1A
Text: FIG. 1A is a bar chart depicting α-MSH disabling autophagy in MNT-1 cells when autophagy is induced by rapamycin.
(§1) FIGS. 1-6 show the induction of synucleinopathy in vitro and in vivo upon exposure to α-MSH employing the MNT-1 cell line (a gift from Michael S. Marks, Ph.D.) as an in vitro model of neuromelanin-containing neurons and the mouse administered α-MSH by intranasal route, respectively. […] Additionally, rapamycin induced autophagy was reduced in the prescence of α-MSH (FIG. 1A). Normally an increase in melanin production by MNT-1 is observed in the presence of rapamycin, since rapamycin induces autophagy and autophagy-related genes that promote melanogenesis. Melanin levels serve as a reliable readout of autophagy in MNT-1 (Kalie, 2013). Indeed, a decrease in melanin was observed when autophagy was inhibited in melanocytes (Zhang, 2015).
A human pigmented cell line MNT-1 was utilized as a model for pigmented dopaminergic neurons to assess synuclein pathology following exposure to the inducer, α-MSH. […] Additionally, cell autophagy induced by rapamycin or starvation was disabled (FIGS. 1A and 1B). […] With time, vulnerable cells begin to die and undergo apoptotic cell death as measured by caspase activity (FIG. 4B). α-Synuclein accumulation and aggregation, loss of melanin and cell death by apoptosis are cardinal features observed in synuclein diseases such as PD and MSA.

MNT-1 cells [2] = assay: Starvation-induced (nutrient-depleted) autophagy and melanin formation in MNT-1 cells; assay type: cell-based, human; conditions: starved MNT-1 cells, α-MSH treated vs untreated, FIG. 1B
Text: FIG. 1B is a photograph of cells in wells of a culture plate depicting starvation-induced autophagy in cells is inhibited by α-MSH resulting in inhibition of melanin production.
as §1
A human pigmented cell line MNT-1 was utilized as a model for pigmented dopaminergic neurons to assess synuclein pathology following exposure to the inducer, α-MSH. […] With time, vulnerable cells begin to die and undergo apoptotic cell death as measured by caspase activity (FIG. 4B). α-Synuclein accumulation and aggregation, loss of melanin and cell death by apoptosis are cardinal features observed in synuclein diseases such as PD and MSA.

MNT-1 cells [3] = assay: Immunofluorescence staining of intracellular α-synuclein in MNT-1 cells; assay type: cell-based, human
Text: as §1
FIGS. 2C, 3, and 4C show human ASIP inhibiting the effects of α-MSH in cellular models and is an effective therapeutic for preventing and reversing synuclein pathology. ASIP was tested as a therapeutic for synucleinopathy in the in vitro cellular model of neuromelanin-containing neurons modeled by MNT-1 cells. […] Immunofluorescence from the α-MSH and ASIP treated cells display similar quantity of α-synuclein compared to healthy, non-treated cells. […]

MNT-1 cells [4] = assay: Glucose consumption of cells in culture exposed to α-MSH; assay type: cell-based, human; conditions: α-MSH exposed vs not exposed cells, low nutrient conditions, FIG. 4A
MNT-1 cells [5] = assay: Apoptosis by fluorescence-based detection of activated caspases (microscopy, flow cytometry); assay type: cell-based, human; conditions: FIG. 4B
Text: (§2) FIGS. 4A-C depict the mechanism of cell death induced by α-MSH and inhibition by ASIP, which blocks cell death. […] Vulnerable cells appear with higher fluorescence intensity for the marker of apoptosis, while untreated cells remain alive and show only background fluorescence (top-left panel). […] FIG. 4C is a bar chart depicting ASIP blocking α-MSH effects and protecting against cell death.
as §1

mice = assay: Induction of synucleinopathy in mice by intranasal α-MSH, gait on rotorod; assay type: in vivo, mouse; conditions: α-MSH intranasal left nostril every other day for one month
Text: FIGS. 5A-B depict the in vivo induction of synucleinopathy in mice by α-MSH. FIG. 5A is a drawing showing the administration of α-MSH into the left nostril of the mouse and a timeline showing frequency of administration and behavioral testing performed by rotorod. FIG. 5B is a series of rotorod testing photographs of a mouse chronically administered α-MSH by intranasal route for a period of 1 month to induce synucleinopathy (see FIG. 5a).
Three mice were given the inducer, α-MSH, which was administered once every other day for one month through an intranasal route through the left nostril (FIG. 5a), and one mouse not subjected to the α-MSH inducer served as a healthy control. Observations and measurements were taken weekly at the end of α-MSH administration. […] The control mouse not subjected to α-MSH maintained normal gait and leg movement. Gait impairment observed in the three mice given the α-MSH, is characteristic of motor symptoms associated with PD and MSA symptoms. Moreover, the time-dependent intensified serverity of gait impairment after α-MSH administration is indicative of disease progression as measured through manisfestation of worsening physical symptoms. […]
Three mice were given the inducer, α-MSH, through an intranasal route and one mouse was not subjected to α-MSH. The gait of all four mice was monitored every […] after subjection to one month of α-MSH treatment. […]

[6] = tested on: substantia nigra of mouse; assay: Immunohistochemistry of mouse brain sections for alpha-synuclein; assay type: in vivo; conditions: mouse given α-MSH in left nostril, anti-mouse alpha synuclein staining, FIG. 6a
Method: FIGS. 6A-B are immunohistochemistry microscopy photographs of brain sections stained with anti-mouse alpha synuclein (BD Biosciences, Clone 42/α-Synuclein).
Three mice were given the inducer, α-MSH, which was administered once every other day for one month through an intranasal route through the left nostril (FIG. 5a), and one mouse not subjected to the α-MSH inducer served as a healthy control. Observations and measurements were taken weekly at the end of α-MSH administration. […] The control mouse not subjected to α-MSH maintained normal gait and leg movement. Gait impairment observed in the three mice given the α-MSH, is characteristic of motor symptoms associated with PD and MSA symptoms. Moreover, the time-dependent intensified serverity of gait impairment after α-MSH administration is indicative of disease progression as measured through manisfestation of worsening physical symptoms. A cardinal feature of synucleinopathy pathology is the presence of aggregated intracellular alpha-synuclein, which is the predominant constituent of Lewy bodies and glial cytoplasmic inclusions (GCIs) observed in the affected regions of the brain in PD, MSA and DLB. […] Pathology was absent in the control mouse not subjected to α-MSH (FIG. 6b).

MNT-1 cells [7] = assay: ASIP reversal of α-MSH induced block in autophagy, melanin content; assay type: cell-based, human; conditions: α-MSH exposed cells treated with ASIP vs not treated, FIG. 3
Method: (§3) FIGS. 2C, 3, and 4C show human ASIP inhibiting the effects of α-MSH in cellular models and is an effective therapeutic for preventing and reversing synuclein pathology. ASIP was tested as a therapeutic for synucleinopathy in the in vitro cellular model of neuromelanin-containing neurons modeled by MNT-1 cells. […] Immunofluorescence from the α-MSH and ASIP treated cells display similar quantity of α-synuclein compared to healthy, non-treated cells. This indicates ASIP inhibits the accumulation and aggregation of intracellular α-synuclein, and additionally has the potential to reverse the accrual of toxic protein aggregates and reverse impairment of autophagy. […] Thus, as a therapeutic ASIP promotes an environment ideal for recovery and is amenable for cell restoration strategies. Based on the in vitro cellular model presented herein, ASIP halts induction and progression of synucleinopathy and reverses the disease.

MNT-1 cells [8] = assay: Cell viability of α-MSH exposed cells with ASIP; assay type: cell-based, human; conditions: α-MSH exposed cells with 200 nM ASIP vs without ASIP, FIG. 4C
Text: as §2, §3

COc1ccc2[nH]cc(CCNC(C)=O)c2c1 [melatonin]
disease symptoms in patients (patients): improved PD symptoms
locomotor deficits (Parkinson's mouse models): stalled locomotor deficits

Pro-Leu-Gly-NH2
disease symptoms in patients (patients): improvement in disease symptoms

α-Melanocyte Stimulating Hormone [α-MSH]
rapamycin-induced cellular autophagy / melanin levels (MNT-1 cells [1]): disabled; also recorded: lower melanin levels; also recorded: reduced
starvation-induced autophagy / melanin formation (MNT-1 cells [2]): lack of melanin; also recorded: melanin formation is not observed; also recorded: inhibited autophagy and melanin formation
accumulation and aggregation of intracellular α-synuclein (MNT-1 cells [3]; MNT-1 cells exposed to α-MSH vs not exposed, FIG. 2B): inducing accumulation and aggregation of α-synuclein; also recorded: increase in intensity of immunofluorescence staining of intracellular α-synuclein
glucose consumption (MNT-1 cells [4]): glucose consumption is observed to be faster; also recorded: consume glucose faster than untreated cells
apoptotic events (flow cytometry, marker of apoptosis) (MNT-1 cells [5]; 4, 7 and 9 days of exposure to α-MSH vs medium alone): increasing apoptotic events
cell death by apoptosis (fluorescence microscopy) (MNT-1 cells [5]; α-MSH exposed cells, 6 days): die by apoptosis
gait / leg impairment (mice; four, six and eight weeks after): progressive leg impairment; also recorded: impaired/weakened right hind leg, loss of symmetry in gait; also recorded: progressive weakness and deteriorating motor control
gait / leg impairment (mice; two weeks after end of treatment): No apparent leg impairment; also recorded: normal gait; also recorded: No significant gait impairment
alpha-synuclein aggregation in substantia nigra [6]: synuclein pathology was observed in the substantia nigra; also recorded: alpha-synuclein aggregation observed in a neuron located in the left substantia nigra; also recorded: Lewy body-like aggregate of alpha-synuclein in the left substantia nigra

β-Melanocyte Stimulating Hormone [β-MSH]
skin darkening in treated patients (patients; patients treated with β-MSH (Cotzias, 1967)): darkenening of skin of treated patients
disease symptoms in patients (patients): worsening of Parkinsonian symptoms

B1: Agouti Signaling Protein (protein, UniProt P42127 23-132, looked up)
Agouti-signaling protein: HLPPEEKLRDDRSLRSNSSVNLLDVPSVSIVALNKKSKQIGRKAAEKKRSSKKEASMKKVVRPRTPLSAPCVATRNSCKPPAPACCDPCASCQCRFFRSACSCRVLSLNC
inhibition of α-MSH induced α-synuclein accumulation (MNT-1 cells [3]; MNT-1 cells exposed to α-MSH and ASIP, FIG. 2C): halt α-synuclein accumulation and aggregation induced by α-MSH; also recorded: inhibition of α-MSH induced accumulation of α-synuclein; also recorded: decreased levels of α-synuclein measured by immunofluorescence
melanin content (restoration of cellular autophagy) (MNT-1 cells [7]): restoring melanin production; also recorded: increase in melanin content; also recorded: restoration of melanin levels
cell viability (protection against cell death) (MNT-1 cells [8]): protects against cell death; also recorded: viability is higher; also recorded: Cells maintain viability
